Assay results from PubChem BioAssay (NCI).
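Exposure lasted 48 hours, with cells grown in 96-well plates and compounds tested at five concentrations. At the GI50, growth is halved. TGI: total growth inhibition.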

Experiments:
Assay in all cases: NCI tumour cell line growth inhibition, 48 h
[1] = system: 786-0 renal
[2] = system: HCC-2998 colon
[3] = system: HCT-116 colon
[4] = system: HCT-15 colon
[5] = system: NCI-H460 lung
[6] = system: SK-MEL-2 melanoma
[7] = system: SK-MEL-28 melanoma
[8] = system: SN12C renal
[9] = system: UACC-62 melanoma
[10] = system: UO-31 renal

SMILES | GI50 [1] [µM] | TGI [1] [µM] | GI50 [2] [µM] | TGI [2] [µM] | GI50 [3] [µM] | TGI [3] [µM] | GI50 [4] [µM] | TGI [4] [µM] | GI50 [5] [µM] | TGI [5] [µM] | GI50 [6] [µM] | TGI [6] [µM] | GI50 [7] [µM] | TGI [7] [µM] | GI50 [8] [µM] | TGI [8] [µM] | GI50 [9] [µM] | TGI [9] [µM] | GI50 [10] [µM] | TGI [10] [µM]
CCC[CH2][Sn]1([CH2]CCC)[O]N=C(c2ccccc2)C(c2ccccc2)[O]1 (stereo not given) | 1.45 | 2.83 | 2.18 | 4.47 | 1.67 | 3.35 | 1.46 | 2.77 | 4.46 | 15.8 | 1.27 | 2.53 | 1.36 | 2.64 | 1.77 | 3.18 | 1.42 | 2.81 | 1.68 | 3.46
CCCCC(C(=O)C(=O)NC1C2CC3CC(C2)CC1C3)C(=O)C(C)C (stereo not given) | – | > 100 | – | > 100 | – | > 100 | – | > 100 | – | > 100 | – | > 100 | – | > 100 | – | > 100 | – | > 100 | – | > 100
O=C(Cc1ccc(/C=C/C(=O)c2ncc[nH]2)cc1)Nc1cc(F)c(F)c(F)c1 | 3.08 | 6.32 | 3.57 | 7.03 | 2.04 | 5.38 | 2.39 | 8.25 | 3.31 | 11.7 | 5.15 | 15.7 | 4.15 | 8.09 | 4.27 | 11.1 | 3.71 | 8.91 | 3.36 | 6.56
C=C(CNCc1ccccc1)c1ccc(C(=O)Nc2ccccc2N)cc1 | 4.44 | > 100 | 2.22 | 5.4 | 15 | > 100 | 36.5 | > 100 | > 100 | > 100 | 5.49 | > 100 | 11.7 | > 100 | 0.583 | 14.8 | 3.76 | 25.3 | 3.64 | 18.2
Cc1ccc(C)c(C2=C(c3cn(C)c4ccccc34)C(=O)NC2=O)c1 | > 25 | > 25 | > 25 | > 25 | 7.58 | > 25 | 9.33 | > 25 | > 17.4 | > 25 | > 25 | > 25 | > 25 | > 25 | > 25 | > 25 | > 25 | > 25 | 13.4 | > 25
C=C1C(=O)OC2CCN3CC=C(COC(=O)C(C)(O)C4(CO4)C1C)C23 (stereo not given) | – | > 100 | – | > 100 | – | > 100 | – | > 100 | – | > 100 | – | > 100 | – | > 100 | – | > 100 | – | > 100 | – | > 100
COc1ccc(CN2C(=O)/C(=C\C(=O)c3ccc(OCCN4CCCCC4)cc3)c3ccccc32)cc1 | 1.66 | 3.11 | 2.4 | 5.05 | 1.54 | 2.88 | 1.67 | 3.37 | 7.67 | 22.3 | 13.8 | 27.9 | 1.98 | 4.02 | 1.74 | 3.5 | 1.67 | 3.13 | 1.57 | 2.92
CS(=O)(=O)Nc1ccc2c(c1)oc(=O)c1ccccc12 | – | > 100 | – | > 100 | – | > 100 | – | > 100 | – | > 100 | – | > 100 | – | > 100 | – | > 100 | – | > 100 | – | > 100
Cc1ccc(Cc2c(=O)[nH]nc3ccccc23)cc1 | – | > 100 | – | > 100 | – | > 100 | – | > 100 | – | > 100 | – | > 100 | – | > 100 | – | > 100 | – | > 100 | – | > 100
O=C(Nc1nc2ccc(C(F)(F)F)cc2s1)c1cc(Cl)ccc1O | 2.14 | 30.6 | 0.781 | 73.6 | 0.414 | 11 | 0.346 | 12.9 | 0.414 | > 100 | 0.798 | 6.09 | 0.425 | 18 | 0.353 | > 100 | 0.337 | 3.52 | 1.19 | 8.79
O=C(CNc1ccc(Cl)cc1)Nc1ccc(-c2nc3ccccc3s2)cc1 | 1.9 | 4.03 | 2.12 | 4.24 | 1.74 | 3.76 | 1.84 | 5.32 | 3.62 | 12.7 | 8.96 | 30.8 | 5.67 | 11.6 | 3.07 | 10.5 | 2.63 | 8.3 | 4.03 | 15.4
CCCCCCCCCCCCOC1C(C(COC2OC(C3COC(C)(C)O3)C3OC(C)(C)OC23)NC(=O)Nc2ccc(C(=O)O)cc2)OC2OC(C)(C)OC21 (stereo not given) | 2.24 | 5.49 | 2.05 | 3.82 | 2.87 | 10.8 | 2.63 | 6.7 | 2.45 | 5.89 | 2.23 | 4.82 | 3.16 | 13 | 3.45 | 12.4 | 1.8 | 3.56 | 3.99 | 13.3
O=C1/C(=C/c2ccc(Br)cc2)COc2ccc(O)c(O)c21 | 0.678 | 2.57 | 1.54 | 3.03 | 0.892 | 2.4 | 0.302 | 1.51 | 1.68 | 4.06 | 1.69 | 4.53 | 1.55 | 3.25 | 0.617 | 2.32 | 1.07 | 2.4 | 0.307 | 1.07
CCOc1ccccc1C=C1c2ccccc2C(=O)c2ccccc21 | – | 18 | – | 21.9 | – | 29.5 | – | > 100 | – | 31.9 | – | 11.9 | – | > 100 | – | > 100 | – | > 100 | – | 13.6
CC1=C(C(=O)Nc2ccccc2)C(c2ccccc2)C(C(=O)Nc2ccccc2)=C(C)N1 | – | > 100 | – | > 100 | – | > 100 | – | > 100 | – | > 100 | – | > 100 | – | > 100 | – | > 100 | – | > 100 | – | > 100
